In patent US9469615B2, “Quinoxalines and AZA-quinoxalines as CRTH2 receptor modulators” (Merck Sharp & Dohme Corp., priority 2010, dated 2016) one finds Ki data, which are given here for 31 compounds.

In general, Ki refers to the equilibrium dissociation constant of an inhibitor or competing ligand from its target. High values mean lower affinity, low ones higher affinity.

In the assay the target is T1, hCRTH2 (Homo sapiens, UniProt Q9Y5Y4).
T1 construct: expressed in transfected cells; host or cells: HEK (human embryonic kidney) cells expressing hCRTH2; membrane preparation
T1 sequence (Q9Y5Y4 1-395): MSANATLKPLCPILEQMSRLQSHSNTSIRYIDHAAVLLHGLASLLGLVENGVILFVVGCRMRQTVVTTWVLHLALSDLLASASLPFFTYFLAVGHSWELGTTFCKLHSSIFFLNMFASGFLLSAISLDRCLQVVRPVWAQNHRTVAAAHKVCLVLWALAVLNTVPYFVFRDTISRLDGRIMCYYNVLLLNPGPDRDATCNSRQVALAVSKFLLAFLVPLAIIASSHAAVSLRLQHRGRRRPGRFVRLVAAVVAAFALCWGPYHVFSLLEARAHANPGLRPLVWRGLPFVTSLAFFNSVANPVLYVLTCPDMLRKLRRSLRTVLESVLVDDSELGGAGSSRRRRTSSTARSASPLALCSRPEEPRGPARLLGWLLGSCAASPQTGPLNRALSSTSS
Description: Radioligand binding assay ([3H]PGD2 competition, HEK-hCRTH2 membranes). The following applies: [3H]PGD2 competition, Table B. In a few lines: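 Competition binding with 3.0 nM [3H]PGD2 and 8-20 μg HEK-hCRTH2 membrane protein in 50 mM Tris-HCl pH 7.4, 1 mM EDTA, 2 mM MnCl2, 1% Me2SO, 60 min at room temperature. Nonspecific binding defined with 10 μM PGD2; bound radioactivity counted after filtration.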

Molecules are shown by their SMILES.

As to `O=C(N[C@H]1CCOc2ccccc21)c1ccc2nc(-c3ccc(F)cc3)c(CCCC(F)(F)C(=O)O)nc2c1` [compound 548, (S)-5-(7-(chroman-4-ylcarbamoyl)-3-(4-fluorophenyl)quinoxalin-2-yl)-2,2-difluoro-pentanoic acid], the Ki was in the range of 201 to 700 nM. `C[C@H]1CN(c2ccccc2)CCN1C(=O)c1ccc2nc(-c3ccccc3)c(CCCCC(=O)O)nc2c1` [compound 549, (S)-5-(7-(2-methyl-4-phenylpiperazine-l-carbonyl)-3-phenylquinoxalin-2-yl)pentanoic acid] displayed a Ki of 2.1 to 20 nM. In the case of `C[C@@H]1CN(c2ccc(Cl)cc2)CCN1C(=O)c1ccc2nc(-c3ccccc3)c(CCCCC(=O)O)nc2c1` [compound 550, (R)-5-(7-(4-(4-chlorophenyl)-2-methylpiperazine-1-carbonyl)-3-phenyl-quinoxa1in-2-yl)pentanoic acid] it was 2.1 to 20 nM. With `C[C@H]1CN(c2ccc(Cl)cc2)CCN1C(=O)c1ccc2nc(-c3ccccc3)c(CCCCC(=O)O)nc2c1` [compound 551, (S)-5-(7-(4-(4-chlorophenyl)-2-methylpiperazine-1-carbonyl)-3-phenyl-quinoxalin-2-yl)pentanoic acid], the Ki lay in the range of 2.1 to 20 nM. With `O=C(O)CCCCc1nc2cc(C(=O)N3CCN(c4ncccn4)CC3)ccc2nc1-c1ccc(Cl)cc1` [compound 552, 5-(3-(4-chlorophenyl)-7-(4-(pyrimidin-2-yl)piperazine-1-carbonyl)quinoxalin-2-yl)pentanoic acid] the figure was 2.1 to 20 nM; with `O=C(O)CCCCc1nc2cc(C(=O)N3CCN(c4ccccc4)C(=O)C3)ccc2nc1-c1ccc(Cl)cc1` [compound 553, 5-(3-(4-chlorophenyl)-7-(3-oxo-4-phenylpiperazine-1-carbonyl)quinoxalin-2-yl)pentanoic acid], 2.1 to 20 nM. In the case of `O=C(O)CCCCc1nc2cc(C(=O)N3CCN(c4ccccn4)CC3)ccc2nc1-c1ccc(Cl)cc1` [compound 554, 5-(3-(4-chlorophenyl)-7-(4-(pyridin-2-yl)piperazine-1-carbonyl)quinoxalin-2-yl)pentanoic acid] it was 2.1 to 20 nM. With `O=C(O)CCCCc1nc2cc(C(=O)N3CCN(Cc4ccccc4)CC3)ccc2nc1-c1ccc(Cl)cc1` [compound 555, 5-(7-(4-benzylpiperazine-1-carbonyl)-3-(4-chlorophenyl)quinoxalin-2-yl)pentanoic acid] the figure was 2.1 to 20 nM. The compound `CC1(C)CCC(NC(=O)c2ccc3nc(-c4ccc(Cl)cc4)c(CCCCC(=O)O)nc3c2)c2ccccc21` (stereo not shown) [compound 556] had an inhibition constant Ki of 2.1 to 20 nM. `O=C(O)CCCCc1nc2cc(C(=O)N3CCc4cc(F)ccc4C3)ccc2nc1-c1ccc(Cl)cc1` [compound 557, 5-(3-(4-chlorophenyl)-7-(6-fluoro-1,2,3,4-tetrahydroisoquinoline-2-carbonyl)quinoxalin-2-yl)pentanoic acid]: the Ki was 2.1 to 20 nM.

In turn, `CC1(C)c2ccc(F)cc2CN1C(=O)c1ccc2nc(-c3ccc(Cl)cc3)c(CCCCC(=O)O)nc2c1` [compound 558, 5-(3-(4-chlorophenyl)-7-(5-fluoro-1,1-dimethylisoindoline-2-carbonyl)quinoxalin-2-yl)pentanoic acid] returned an inhibitory constant (Ki) of 2.1 to 20 nM.

In turn, `O=C(O)CCCCc1nc2cc(C(=O)N3CC[C@H](c4ccc(F)cc4)C3)ccc2nc1-c1ccc(Cl)cc1` [compound 559, (R)-5-(3-(4-chlorophenyl)-7-(3-(4-fluorophenyl)pyrrolidine-1-carbonyl)quinoxalin-2-yl)pentanoic acid] returned a Ki of 0.1 to 2 nM. In the case of `O=C(O)CCCCc1nc2cc(C(=O)N3CC[C@@H](c4ccc(F)cc4)C3)ccc2nc1-c1ccc(Cl)cc1` [compound 560, (S)-5-(3-(4-chlorophenyl)-7-(3-(4-fluorophenyl)pyrrolidine-1-carbonyl)quinoxalin-2-yl)pentanoic acid] it was 0.1 to 2 nM. With `O=C(O)CCCCc1nc2cc(C(=O)NC3CCCOc4ccccc43)ccc2nc1-c1ccc(Cl)cc1` (stereo not shown) [compound 561, 5-(3-(4-chlorophenyl)-7-((2,3,4,5-tetrahydrobenzo[b]oxepin-5-yl)carbamoyl)quinoxalin-2-yl)pentanoic acid] the figure was 0.1 to 2 nM; with `O=C(O)CCCCc1nc2cc(C(=O)N[C@H]3COc4ccccc43)ccc2nc1-c1ccc(Cl)cc1` [compound 562, (R)-5-(3-(4-chlorophenyl)-7-((2,3-dihydrobenzofuran-3-yl)carbamoyl)quinoxalin-2-yl)pentanoic acid], 0.1 to 2 nM.

In turn, `O=C(O)CCCCc1nc2cc(C(=O)N[C@@H]3COc4ccccc43)ccc2nc1-c1ccc(Cl)cc1` [compound 563, (S)-5-(3-(4-chlorophenyl)-7-((2,3-dihydrobenzofuran-3-yl)carbamoyl)quinoxalin-2-yl)pentanoic acid] yielded a Ki of 0.1 to 2 nM.

For `CC1(C)CC(NC(=O)c2ccc3nc(-c4ccc(Cl)cc4)c(CCCCC(=O)O)nc3c2)c2ccccc2O1` (stereo not shown) [compound 564, 5-(3-(4-chlorophenyl)-7-((2,2-dimethylchroman-4-yl)carbamoyl)quinoxalin-2-yl)pentanoic acid], the inhibition constant Ki lay in the range of 2.1 to 20 nM. In the case of `O=C(O)CCCCc1nc2cc(C(=O)N3CCC4(CCCc5ccccc54)C3)ccc2nc1-c1ccc(Cl)cc1` (stereo not shown) [compound 565, 5-(3-(4-chlorophenyl)-7-(3,4-dihydro-2H-spiro [naphthalene-1,3′-pyrrolidin]-1′-ylcarbonyl)quinoxalin-2-yl)pentanoic acid] it was 0.1 to 2 nM; in that of `O=C(O)CCCCc1nc2cc(C(=O)NC3C(=O)Nc4ccccc43)ccc2nc1-c1ccc(Cl)cc1` (stereo not shown) [compound 566, 5-(3-(4-chlorophenyl)-7-((2-oxoindolin-3-yl)carbamoyl)quinoxalin-2-yl)pentanoic acid], 2.1 to 20 nM.

Consider `O=C(O)CCCCc1nc2cc(C(=O)N3CCC4(CC3)NC(=O)Cc3ccccc34)ccc2nc1-c1ccc(Cl)cc1` [compound 567], for which the Ki is 0.1 to 2 nM. In the case of `O=C(O)CCCCc1nc2cc(C(=O)N3CCC4(CC3)Cc3ccccc3C(=O)N4)ccc2nc1-c1ccc(Cl)cc1` [compound 568, 5-(3-(4-chlorophenyl)-7-(1-oxo-2,4-dihydro-1H-spiro[isoquinoline-3,4′-piperidin]-1′-ylcarbonyl)quinoxalin-2-yl)pentanoic acid] it was 2.1 to 20 nM; in that of `O=C(O)CCCCc1nc2cc(C(=O)N[C@@H]3CCSc4ccccc43)ccc2nc1-c1ccc(Cl)cc1` [compound 569, (R)-5-(3-(4-chlorophenyl)-7-(thiochroman-4-ylcarbamoyl)quinoxalin-2-yl)pentanoic acid], 0.1 to 2 nM. In the case of `O=C(O)CCCCc1nc2cc(C(=O)N[C@@H]3CCCCc4ccccc43)ccc2nc1-c1ccc(Cl)cc1` [compound 570, (R)-5-(3-(4-chlorophenyl)-7-((6,7,8,9-tetrahydro-5H-benzo[7]annulen-5-yl)carbamoyl)quinoxalin-2-yl)pentanoic acid] it was 2.1 to 20 nM. Consider `C[C@H](NC(=O)c1ccc2nc(-c3ccc(F)cc3)c(CCCCC(=O)O)nc2c1)c1ccc(F)c2ccccc12` [compound 571, (S)-5-(7-((1-(4-fluoronaphthalen-1-yl)ethyl)carbamoyl)-3-(4-fluorophenyl)quinoxalin-2-yl)pentanoic acid], for which the Ki is 2.1 to 20 nM. In the case of `C[C@@H](NC(=O)c1ccc2nc(-c3ccc(F)cc3)c(CCCCC(=O)O)nc2c1)c1ccc(F)c2ccccc12` [compound 572, (R)-5-(7-((1-(4-fluoronaphthalen-1-yl)ethyl)carbamoyl)-3-(4-fluorophenyl)quinoxalin-2-yl)pentanoic acid] it was 20.1 to 200 nM; in that of `O=C(O)CCCCc1nc2cc(C(=O)N[C@@H]3COc4ccccc43)ccc2nc1-c1ccccc1` [compound 573, (S)-5-(7-((2,3-dihydrobenzofuran-3-yl)carbamoyl)-3-phenylquinoxalin-2-yl)pentanoic acid], 2.1 to 20 nM; in that of `O=C(O)CCCCc1nc2cc(C(=O)N[C@H]3COc4ccccc43)ccc2nc1-c1ccccc1` [compound 574, (R)-5-(7-((2,3-dihydrobenzofuran-3-yl)carbamoyl)-3-phenylquinoxalin-2-yl)pentanoic acid], 2.1 to 20 nM.

With `CS(=O)(=O)N1CCC(NC(=O)c2ccc3nc(-c4ccccc4)c(CCCCC(=O)O)nc3c2)c2ccccc21` (stereo not shown) [compound 575, 5-(7-((1-(methylsulfonyl)-1,2,3,4-tetrahydroquinolin-4-yl)carbamoyl)-3-phenylquinoxalin-2-yl)pentanoic acid], the Ki was in the range of 0.1 to 2 nM. With `O=C(O)CCCCc1nc2cc(C(=O)NC3CC(=O)Nc4ccccc43)ccc2nc1-c1ccccc1` (stereo not shown) [compound 576, 5-(7-((2-oxo-1,2,3,4-tetrahydroquinolin-4-yl)carbamoyl)-3-phenylquinoxalin-2-yl)pentanoic acid], the Ki was 2.1 to 20 nM. As to `O=C(O)CCCCc1nc2cc(C(=O)N3CC[C@H](c4ccc(F)cc4)C3)ccc2nc1-c1ccc(Cl)cc1` [compound 577, (R)-5-(3-(4-chlorophenyl)-7-(3-(4-fluorophenyl)pyrrolidine-1-carbonyl)quinoxalin-2-yl)pentanoic acid], the Ki was in the range of 0.1 to 2 nM. In the case of `O=C(O)CCCCc1nc2cc(C(=O)NC3CCCOc4ccccc43)ccc2nc1-c1ccc(Cl)cc1` (stereo not shown) [compound 579, 5-(3-(4-chlorophenyl)-7-((2,3,4,5-tetralaydrobenzo[b]oxepin-5-yl)carbamoyl)quinoxalin-2-yl)pentanoic acid], the Ki is 2.1 to 20 nM.
